Assay results taken from patent US9789096B2, “Methods and compositions for selective and targeted cancer therapy” (Board of Regents of the University of Texas System, priority 2013, dated 2017).

Assays:
HMOX2 = molecular target: T1, HMOX2 (Homo sapiens, UniProt P30519); assay: Immunoprecipitation of SW208108-bound protein with anti-HMOX2; assay type: binding
T1 construct: endogenous in cells; host or cells: H2122 cells (homogenate / lysate)
From the text: FIG. 7M. HMOX2 binds to SW208108 and is partially competed by an active competitor. Lysates collected from H2122 cells treated with SW208108 with or without competitor were immunoprecipitated with either IgG or anti-HMOX2 and then “clicked” to a dye-azide (as described in FIG. 7A). HMOX2 binds to SW208108 and binding is partially diminished in the presence of a competitor.
However, when HO2 was knocked out from H2122 cells using Crisper technology (FIG. 7O), no toxicity was observed, and SW208108 and related compounds retained toxicity towards H2122 cells (FIG. 7P). We conclude that HO2 is not required for cell survival or for the cytotoxicity of the selective toxins.

H2122 cells = assay: Covalent labelling of proteins in H2122 cells (click to fluorescent azide, SDS-PAGE); assay type: cell-based, human
Protocol: FIG. 7A. […] H2122 cells were treated with the indicated concentrations of SW208108 for 4 h followed by irradiation with a UV light or no irradiation. Cells were then lysed, protein was precipitated, resuspended in buffer and conjugated to an azide-containing dye using Cu catalysis following standard protocols. Samples were resolved under denaturing conditions on an SDS-PAGE gel and visualized using a fluorescent imager at the indicated wavelengths.
FIG. 7B. Chromone and Benzothiazole alkynes, like the oxalamide, covalently bind proteins of similar molecular weight. The arrows indicate a 37 kD and 30 kD band common to all three scaffolds.
To identify the target of the benzothiazoles, oxalamides, N-acyl ureas and chromones, we generated a potent oxalamide, SW208108, that features both a “crosslinker” and a “tag”. Upon exposure to UV light, the benzophenone group becomes reactive and was anticipated to crosslink to a nearby amino acid, and the alkyne serves as a “tag” by its capacity to react with an azide through “click chemistry”. Combining these features, we treated H2122 cells with various concentrations of SW208108 and either cultured them normally (“−UV”) or irradiated them briefly with UV light (“+UV”). Subsequently, we “clicked” the resulting lysate to a fluorescent azide, and detected multiple fluorescently labeled proteins on SDS-PAGE (FIG. 7A). […]

H2122 = assay: Cell viability dose-response, H2122; assay type: cell-based, human; conditions: text b138; read-out: IC50 towards H2122 cells
Summary of the method: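 Cells plated at 15% confluence in RPMI-1640 with 5% FBS and 2 mM L-glutamine, treated with compound in a 12-point, 3-fold dilution series from 50 micromolar, in duplicate. ATP measured by Cell Titer Glo after 4 days; IC50 taken from the dose-response curve.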

4 sensitive cell lines = assay: Rescue of toxicity by sodium oleate in 4 sensitive lines; assay type: cell-based, human; conditions: 100 μM sodium oleate
From the text: FIGS. 8D-8E. Sodium oleate rescues the toxicity of SCD1 inhibitors.
Consistent with this interpretation, the toxicity of SW208108 against 4 sensitive cell lines was fully rescued by adding sodium oleic acid to the culture media (FIG. 8D). Moreover, a commercially available SCD1 inhibitor (Cayman chemicals), originally described by Liu et al (compound 28c in the Journal of Medicinal Chemistry, 2007, 50, 3086-3100) was likewise toxic to the same 4 non-small cell lung cancer cell lines (FIG. 8E).

SCD1 = molecular target: T2, SCD1 (Homo sapiens, UniProt O00767); assay: Cross-linking of SW208108 in 12 NSCLC cell lines; assay type: cell-based
T2 sequence (O00767 1-359): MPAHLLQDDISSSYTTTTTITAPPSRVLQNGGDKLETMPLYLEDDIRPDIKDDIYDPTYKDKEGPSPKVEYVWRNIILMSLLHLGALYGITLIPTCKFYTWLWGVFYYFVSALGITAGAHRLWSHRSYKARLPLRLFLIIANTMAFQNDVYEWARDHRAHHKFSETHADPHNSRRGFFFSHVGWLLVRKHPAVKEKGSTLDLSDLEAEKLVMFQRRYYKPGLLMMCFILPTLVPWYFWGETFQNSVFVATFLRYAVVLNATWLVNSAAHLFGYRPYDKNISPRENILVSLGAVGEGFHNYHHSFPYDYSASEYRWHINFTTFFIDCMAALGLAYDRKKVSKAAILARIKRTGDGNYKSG
Protocol: FIGS. 9A-9D. Selective toxins selectively cross-link to SCD1 in sensitive cells and are selectively metabolized in sensitive cells. FIG. 9A. 12 NSCLC cell lines were incubated with SW208108 and processed as described in FIG. 7. […] FIG. 9B. […] FIG. 9C. […] Demethylation is the anticipated mode of metabolism. FIG. 9D. A representative benzothiazole is demethylated by sensitive cell lines. […] Values in FIGS. 9C and 9D were obtained by tandem HPLC/MS/MS.
In this context, 12 different NSCLC cell lines were treated with SW208108, lysed and clicked to a dye as previously described. […] To understand how SW208108 could selectively cross-link to SCD1 within some cell lines that expressed the enzyme but not other cell lines that expressed the same enzyme, we investigated the stability of a representative oxalamide in the presence of a sensitive and insensitive cell line. […] Similarly, a representative benzothiazole was metabolized by H2122 cells through, at least in part, the loss of the O-methyl group (FIG. 9D).

T1 sequence (P30519 whole entry): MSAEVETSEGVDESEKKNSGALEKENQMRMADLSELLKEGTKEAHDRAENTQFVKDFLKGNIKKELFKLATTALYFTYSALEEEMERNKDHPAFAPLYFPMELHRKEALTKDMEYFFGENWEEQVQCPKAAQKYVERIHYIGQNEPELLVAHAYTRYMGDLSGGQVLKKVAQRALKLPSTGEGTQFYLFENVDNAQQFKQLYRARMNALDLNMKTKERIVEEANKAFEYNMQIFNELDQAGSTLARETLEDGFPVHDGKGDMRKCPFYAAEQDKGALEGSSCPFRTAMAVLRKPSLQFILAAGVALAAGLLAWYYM

C#CCOc1ccc(C(=O)c2ccc(NC(=O)C(=O)NCCc3ccc(OC)cc3)cc2)cc1 [SW208108]
covalent binding to HO2 (HMOX2) (HMOX2): covalently bound | covalent modification of proteins (p37, p30) in H2122 cells without UV (H2122 cells): covalently cross links proteins | IC50 (H2122): 0.03 µM | toxicity against 4 sensitive cell lines with sodium oleic acid (4 sensitive cell lines): fully rescued | cross linked SCD1 bands in 12 NSCLC cell lines (SCD1): Prominent cross linked bands
